Source: patent US10294202B2, “Pyrrolidinones as herbicides” (FMC Corporation, priority 2013, dated 2019)

What was measured:
[1] = system: rice; assay: Test C flooded paddy test; format: in vivo, Oryza sativa; details: Flood
Source text: (§1) Plant species in the flooded paddy test consisted of rice (Oryza sativa), sedge, umbrella (small-flower umbrella sedge, Cyperus difformis), ducksalad (Heteranthera limosa), and barnyardgrass (Echinochloa crus-galli) grown to the 2-leaf stage for testing. At time of treatment, test pots were flooded to 3 cm above the soil surface, treated by application of test compounds directly to the paddy water, and then maintained at that water depth for the duration of the test. Treated plants and controls were maintained in a greenhouse for 13 to 15 days, after which time all species were compared to controls and visually evaluated. Plant response ratings, summarized in Table C, are based on a scale of 0 to 100 where 0 is no effect and 100 is complete control. A dash (-) response means no test result.

[2] = system: ducksalad; assay: Test C flooded paddy test; format: in vivo, Heteranthera limosa; details: Flood
Source text: as §1

[3] = system: wheat; assay: Test A pre-/postemergence herbicide test; format: in vivo, Triticum aestivum
Summary of the method: (§2)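 Formulated compound (non-phytotoxic solvent, surfactant) sprayed pre- onto soil of seeded loam/sand pots or post- onto seedlings at 1–2 leaves; ~10 d greenhouse; 0–100 visual control rating versus untreated.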

[4] = system: pigweed; assay: Test A pre-/postemergence herbicide test; format: in vivo, Amaranthus retroflexus
Summary of the method: as §2

[5] = system: barnyardgrass; assay: Test C flooded paddy test; format: in vivo, Echinochloa crus-galli; details: Flood
Source text: as §1

[6] = system: sedge, umbrella; assay: Test C flooded paddy test; format: in vivo, Cyperus difformis; details: Flood
Source text: as §1

[7] = system: giant foxtail; assay: Test A pre-/postemergence herbicide test; format: in vivo, Setaria faberii
Summary of the method: as §2

[8] = system: morningglory; assay: Test A pre-/postemergence herbicide test; format: in vivo, Ipomoea spp.
Summary of the method: as §2

[9] = system: crabgrass, large; assay: Test A pre-/postemergence herbicide test; format: in vivo, Digitaria sanguinalis
Summary of the method: as §2

[10] = system: barnyardgrass; assay: Test A pre-/postemergence herbicide test; format: in vivo, Echinochloa crus-galli
Summary of the method: as §2

[11] = system: velvetleaf; assay: Test A pre-/postemergence herbicide test; format: in vivo, Abutilon theophrasti
Summary of the method: as §2

[12] = system: corn; assay: Test A pre-/postemergence herbicide test; format: in vivo, Zea mays
Summary of the method: as §2

[13] = system: kochia; assay: Test A pre-/postemergence herbicide test; format: in vivo, Kochia scoparia; details: for Plant response rating, Kochia: 125 g ai/ha; for Kochia plant response rating: 500 g ai/ha
Summary of the method: as §2

[14] = system: ragweed; assay: Test A pre-/postemergence herbicide test; format: in vivo, Ambrosia elatior; details: for Plant response rating, Ragweed: 125 g ai/ha; for Ragweed plant response rating: 500 g ai/ha
Summary of the method: as §2

[15] = system: sedge, umbrella; assay: Test B flooded paddy test; format: in vivo, Cyperus difformis; details: 500 g ai/ha, Flood; scale of 0 to 100 where 0 is no effect and 100 is complete control
Summary of the method: (§3)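 Visual ratings from 0, meaning no effect, up to 100, meaning complete control, were made by comparison with untreated controls 13 to 15 days after treatment. Test compounds went straight into floodwater standing 3 cm over the soil of pots holding 2-leaf seedlings.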

[16] = system: ducksalad; assay: Test B flooded paddy test; format: in vivo, Heteranthera limosa; details: 500 g ai/ha, Flood; scale of 0 to 100 where 0 is no effect and 100 is complete control
Summary of the method: as §3

[17] = system: galium; assay: Test A postemergence herbicide test; format: in vivo, Galium aparine; details: 125 g ai/ha, visual rating on 0 to 100 scale (0 no effect, 100 complete control), approx. 10 days
Summary of the method: (§4)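 Blackgrass and galium grown in pots of loam soil–sand blend, treated postemergence at 2–10 cm height, one- to two-leaf stage. Plants kept in greenhouse ~10 days, then visually rated for injury against untreated controls on a 0–100 scale (0 no effect, 100 complete control).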

[18] = system: barnyardgrass; assay: Test B flooded paddy test; format: in vivo, Echinochloa crus-galli; details: 500 g ai/ha, Flood; scale of 0 to 100 where 0 is no effect and 100 is complete control
Summary of the method: as §3

[19] = system: ryegrass, Italian; assay: Test A pre-/postemergence herbicide test; format: in vivo, Lolium multiflorum; details: for Plant response rating, Ryegrass, Italian: 125 g ai/ha; for Ryegrass, Italian plant response rating: 500 g ai/ha
Summary of the method: as §2

[20] = system: blackgrass; assay: Test A postemergence herbicide test; format: in vivo, Alopecurus myosuroides
Summary of the method: as §4

[21] = system: rice; assay: Test B flooded paddy test; format: in vivo, Oryza sativa; details: 500 g ai/ha, Flood; scale of 0 to 100 where 0 is no effect and 100 is complete control
Summary of the method: as §3

[22] = 31 g ai/ha, scale of 0 to 100 where 0 is no effect and 100 is complete control, 13 to 15 days
[23] = 62 g ai/ha, scale of 0 to 100 where 0 is no effect and 100 is complete control, 13 to 15 days
[24] = 125 g ai/ha, scale of 0 to 100 where 0 is no effect and 100 is complete control, 13 to 15 days
[25] = Postemergence, 500 g ai/ha, 0 to 100 scale (0 no effect, 100 complete control)
[26] = Preemergence, 125 g ai/ha, visual rating on 0 to 100 scale (0 no effect, 100 complete control)
[27] = preemergence, 500 g ai/ha, 0 to 100 scale
[28] = Postemergence, 125 g ai/ha, 0 to 100 scale, 0 no effect, 100 complete control
[29] = Postemergence, 1000 g ai/ha, 0 to 100 scale (0 no effect, 100 complete control)
[30] = Preemergence, 1000 g ai/ha, visual rating on 0 to 100 scale (0 no effect, 100 complete control), approx. 10 days
[31] = Postemergence, visual rating on 0 to 100 scale (0 no effect, 100 complete control), approx. 10 days
[32] = Preemergence, 0 to 100 scale where 0 is no effect and 100 is complete control
[33] = Preemergence, visual rating on 0 to 100 scale (0 no effect, 100 complete control)
[34] = Postemergence, 125 g ai/ha, visual rating on 0 to 100 scale (0 no effect, 100 complete control), approx. 10 days
[35] = Preemergence, 125 g ai/ha, 0 to 100 scale where 0 is no effect and 100 is complete control
[36] = Preemergence, 500 g ai/ha, visual rating on 0 to 100 scale (0 no effect, 100 complete control)
[37] = 125 g ai/ha, visual rating on 0 to 100 scale (0 no effect, 100 complete control), approx. 10 days
[38] = 500 g ai/ha, 0 to 100 scale (0 no effect, 100 complete control)

Structure (SMILES): O=C1NCC(c2cccc(F)c2)C1C(=O)Nc1ccccc1C(F)(F)F (racemic) [Compound 2]
- Plant response rating, Rice [1, 22]: 0
- Plant response rating, Rice [1, 23]: 0
- Plant response rating, Rice [1, 24]: 0
- Plant response rating, Rice ([1]; 250 g ai/ha, scale 0 to 100): 0
- Plant response rating, Ducksalad [2, 22]: 0
- Plant response rating, Ducksalad [2, 23]: 0
- Plant response rating, Ducksalad [2, 24]: 0
- Plant response rating, Ducksalad ([2]; 250 g ai/ha, scale 0 to 100): 0
- Plant response rating, Wheat [3, 25]: 0
- Wheat plant response rating [3, 26]: 0
- Plant response rating, Wheat [3, 27]: 0
- Plant response rating, Pigweed [4, 25]: 0
- Pigweed plant response rating [4, 26]: 0
- Plant response rating, Pigweed [4, 27]: 0
- Plant response rating, Barnyardgrass [5, 22]: 0
- Plant response rating, Barnyardgrass [5, 23]: 0
- Plant response rating, Barnyardgrass [5, 24]: 0
- Plant response rating, Barnyardgrass ([5]; 250 g ai/ha, scale 0 to 100): 0
- Plant response rating, Sedge, Umbrella [6, 22]: 0
- Plant response rating, Sedge, Umbrella [6, 23]: 0
- Plant response rating, Sedge, Umbrella [6, 24]: 0
- Plant response rating, Sedge, Umbrella ([6]; 250 g ai/ha, scale 0 to 100): 0
- Plant response rating, Foxtail, Giant [7, 28]: 30
- Plant response rating, Foxtail, Giant [7, 25]: 60
- Foxtail, Giant plant response rating [7, 26]: 90
- Plant response rating, Foxtail, Giant [7, 27]: 90
- Plant response rating, Morningglory [8, 25]: 0
- Morningglory plant response rating [8, 26]: 0
- Plant response rating, Morningglory [8, 27]: 0
- Plant response rating, Crabgrass, Large [9, 28]: 50
- Plant response rating, Crabgrass, Large [9, 25]: 70
- Crabgrass, Large plant response rating [9, 26]: 90
- Plant response rating, Crabgrass, Large [9, 27]: 90
- Plant response rating, Barnyardgrass [10, 28]: 30
- Plant response rating, Barnyardgrass [10, 25]: 60
- Barnyardgrass plant response rating [10, 26]: 30
- Plant response rating, Barnyardgrass ([10]; preemergence, 500 g ai/ha, 0 to 100 scale (0 no effect, 100 complete control)): 60
- Plant response rating, Velvetleaf [11, 25]: 0
- Velvetleaf plant response rating [11, 26]: 0
- Plant response rating, Velvetleaf [11, 27]: 0
- Plant response rating, Corn [12, 28]: 0
- Plant response rating, Corn [12, 25]: 0
- Corn plant response rating [12, 26]: 0
- Plant response rating, Corn [12, 27]: 0

Structure (SMILES): O=C1NCC(c2ccc(F)c(F)c2)C1C(=O)Nc1cccc(Cl)c1 (racemic) [Compound 18]
- Plant response rating, Rice [1, 22]: 0
- Plant response rating, Rice [1, 23]: 0
- Plant response rating, Rice [1, 24]: 0
- Plant response rating, Rice ([1]; 250 g ai/ha, scale 0 to 100): 0
- Plant response rating, Ducksalad [2, 22]: 0
- Plant response rating, Ducksalad [2, 23]: 0
- Plant response rating, Ducksalad [2, 24]: 0
- Plant response rating, Ducksalad ([2]; 250 g ai/ha, scale 0 to 100): 0
- Plant response rating, Wheat [3, 29]: 0
- Plant response rating, Wheat [3, 30]: 0
- Plant response rating, Pigweed [4, 29]: 0
- Plant response rating, Pigweed [4, 30]: 0
- Plant response rating, Barnyardgrass [5, 22]: 0
- Plant response rating, Barnyardgrass [5, 23]: 0
- Plant response rating, Barnyardgrass [5, 24]: 0
- Plant response rating, Barnyardgrass ([5]; 250 g ai/ha, scale 0 to 100): 0
- Plant response rating, Sedge, Umbrella [6, 22]: 0
- Plant response rating, Sedge, Umbrella [6, 23]: 0
- Plant response rating, Sedge, Umbrella [6, 24]: 0
- Plant response rating, Sedge, Umbrella ([6]; 250 g ai/ha, scale 0 to 100): 0
- Plant response rating, Foxtail, Giant [7, 29]: 70
- Plant response rating, Foxtail, Giant [7, 30]: 80
- Plant response rating, Morningglory [8, 29]: 0
- Plant response rating, Morningglory [8, 30]: 0
- Plant response rating, Crabgrass, Large [9, 29]: 70
- Plant response rating, Crabgrass, Large [9, 30]: 80
- Plant response rating, Barnyardgrass [10, 29]: 50
- Plant response rating, Barnyardgrass [10, 30]: 80
- Plant response rating, Velvetleaf [11, 29]: 0
- Plant response rating, Velvetleaf [11, 30]: 0
- Plant response rating, Corn [12, 29]: 0
- Plant response rating, Corn [12, 30]: 0

Structure (SMILES): O=C1NCC(c2ccc(Br)c(Br)c2)C1C(=O)Nc1ccc(F)c(F)c1F (stereo not shown) [Compound 342]
- Plant response rating, Kochia [13, 31]: 20
- Plant response rating, Kochia [13, 32]: 0
- Kochia plant response rating [13, 33]: 0
- Plant response rating, Ragweed [14, 31]: 0
- Plant response rating, Ragweed [14, 32]: 0
- Ragweed plant response rating [14, 33]: 0
- Plant response rating, Wheat [3, 34]: 0
- Plant response rating, Pigweed [4, 34]: 0
- Plant response rating, Pigweed [4, 35]: 0
- Pigweed plant response rating [4, 36]: 50
- Plant response rating, Sedge, Umbrella [15]: 0
- Plant response rating, Ducksalad [16]: 0
- Plant response rating, Foxtail, Giant [7, 34]: 40
- Plant response rating, Foxtail, Giant [7, 25]: 50
- Plant response rating, Foxtail, Giant [7, 35]: 70
- Foxtail, Giant plant response rating [7, 36]: 90
- Plant response rating, Galium [17]: 0
- Plant response rating, Barnyardgrass [18]: 0
- Plant response rating, Ryegrass, Italian [19, 31]: 0
- Plant response rating, Ryegrass, Italian [19, 32]: 0
- Ryegrass, Italian plant response rating [19, 33]: 20
- Plant response rating, Blackgrass [20, 37]: 0
- Plant response rating, Blackgrass [20, 38]: 0
- Plant response rating, Rice [21]: 0
- Plant response rating, Barnyardgrass [10, 34]: 30
- Plant response rating, Barnyardgrass [10, 25]: 60
- Plant response rating, Barnyardgrass [10, 35]: 50
- Barnyardgrass plant response rating [10, 36]: 80
- Plant response rating, Corn [12, 34]: 0
- Plant response rating, Corn [12, 25]: 40

Structure (SMILES): O=C1NCC(c2ccc(Br)c(Br)c2)C1C(=O)Nc1ccccc1Cl (stereo not shown) [Compound 343]
- Plant response rating, Kochia [13, 31]: 0
- Plant response rating, Kochia [13, 32]: 0
- Kochia plant response rating [13, 33]: 0
- Plant response rating, Ragweed [14, 31]: 0
- Plant response rating, Ragweed [14, 32]: 0
- Ragweed plant response rating [14, 33]: 0
- Plant response rating, Wheat [3, 34]: 0
- Plant response rating, Pigweed [4, 34]: 0
- Plant response rating, Pigweed [4, 35]: 0
- Pigweed plant response rating [4, 36]: 0
- Plant response rating, Sedge, Umbrella [15]: 0
- Plant response rating, Ducksalad [16]: 0
- Plant response rating, Foxtail, Giant [7, 34]: 30
- Plant response rating, Foxtail, Giant [7, 25]: 60
- Plant response rating, Foxtail, Giant [7, 35]: 60
- Foxtail, Giant plant response rating [7, 36]: 80
- Plant response rating, Galium [17]: 0
- Plant response rating, Barnyardgrass [18]: 0
- Plant response rating, Ryegrass, Italian [19, 31]: 0
- Plant response rating, Ryegrass, Italian [19, 32]: 0
- Ryegrass, Italian plant response rating [19, 33]: 0
- Plant response rating, Blackgrass [20, 37]: 0
- Plant response rating, Blackgrass [20, 38]: 0
- Plant response rating, Rice [21]: 0
- Plant response rating, Barnyardgrass [10, 34]: 0
- Plant response rating, Barnyardgrass [10, 25]: 30
- Plant response rating, Barnyardgrass [10, 35]: 20
- Barnyardgrass plant response rating [10, 36]: 80
- Plant response rating, Corn [12, 34]: 0
- Plant response rating, Corn [12, 25]: 0
